# Results published in patent US9630929B2, “Benzenesulfonamide compounds and their use as therapeutic agents” (XENON PHARMACEUTICALS INC., priority 2011, dated 2017).
# Assays:
# NaV1.7 = NaV1.7 (Homo sapiens (Human), UniProt Q15858); assay: NaV flux assay, inhibition of NaV1.7; type: cell-based; settings: NaV flux data, included when EP data is not available
# NaV1.5 = NaV1.5 (Homo sapiens (Human), UniProt Q14524); assay: NaV flux assay, inhibition of NaV1.5; type: cell-based; settings: NaV flux data, included when EP data is not available
# Chain of NaV1.5 (Q14524 whole entry): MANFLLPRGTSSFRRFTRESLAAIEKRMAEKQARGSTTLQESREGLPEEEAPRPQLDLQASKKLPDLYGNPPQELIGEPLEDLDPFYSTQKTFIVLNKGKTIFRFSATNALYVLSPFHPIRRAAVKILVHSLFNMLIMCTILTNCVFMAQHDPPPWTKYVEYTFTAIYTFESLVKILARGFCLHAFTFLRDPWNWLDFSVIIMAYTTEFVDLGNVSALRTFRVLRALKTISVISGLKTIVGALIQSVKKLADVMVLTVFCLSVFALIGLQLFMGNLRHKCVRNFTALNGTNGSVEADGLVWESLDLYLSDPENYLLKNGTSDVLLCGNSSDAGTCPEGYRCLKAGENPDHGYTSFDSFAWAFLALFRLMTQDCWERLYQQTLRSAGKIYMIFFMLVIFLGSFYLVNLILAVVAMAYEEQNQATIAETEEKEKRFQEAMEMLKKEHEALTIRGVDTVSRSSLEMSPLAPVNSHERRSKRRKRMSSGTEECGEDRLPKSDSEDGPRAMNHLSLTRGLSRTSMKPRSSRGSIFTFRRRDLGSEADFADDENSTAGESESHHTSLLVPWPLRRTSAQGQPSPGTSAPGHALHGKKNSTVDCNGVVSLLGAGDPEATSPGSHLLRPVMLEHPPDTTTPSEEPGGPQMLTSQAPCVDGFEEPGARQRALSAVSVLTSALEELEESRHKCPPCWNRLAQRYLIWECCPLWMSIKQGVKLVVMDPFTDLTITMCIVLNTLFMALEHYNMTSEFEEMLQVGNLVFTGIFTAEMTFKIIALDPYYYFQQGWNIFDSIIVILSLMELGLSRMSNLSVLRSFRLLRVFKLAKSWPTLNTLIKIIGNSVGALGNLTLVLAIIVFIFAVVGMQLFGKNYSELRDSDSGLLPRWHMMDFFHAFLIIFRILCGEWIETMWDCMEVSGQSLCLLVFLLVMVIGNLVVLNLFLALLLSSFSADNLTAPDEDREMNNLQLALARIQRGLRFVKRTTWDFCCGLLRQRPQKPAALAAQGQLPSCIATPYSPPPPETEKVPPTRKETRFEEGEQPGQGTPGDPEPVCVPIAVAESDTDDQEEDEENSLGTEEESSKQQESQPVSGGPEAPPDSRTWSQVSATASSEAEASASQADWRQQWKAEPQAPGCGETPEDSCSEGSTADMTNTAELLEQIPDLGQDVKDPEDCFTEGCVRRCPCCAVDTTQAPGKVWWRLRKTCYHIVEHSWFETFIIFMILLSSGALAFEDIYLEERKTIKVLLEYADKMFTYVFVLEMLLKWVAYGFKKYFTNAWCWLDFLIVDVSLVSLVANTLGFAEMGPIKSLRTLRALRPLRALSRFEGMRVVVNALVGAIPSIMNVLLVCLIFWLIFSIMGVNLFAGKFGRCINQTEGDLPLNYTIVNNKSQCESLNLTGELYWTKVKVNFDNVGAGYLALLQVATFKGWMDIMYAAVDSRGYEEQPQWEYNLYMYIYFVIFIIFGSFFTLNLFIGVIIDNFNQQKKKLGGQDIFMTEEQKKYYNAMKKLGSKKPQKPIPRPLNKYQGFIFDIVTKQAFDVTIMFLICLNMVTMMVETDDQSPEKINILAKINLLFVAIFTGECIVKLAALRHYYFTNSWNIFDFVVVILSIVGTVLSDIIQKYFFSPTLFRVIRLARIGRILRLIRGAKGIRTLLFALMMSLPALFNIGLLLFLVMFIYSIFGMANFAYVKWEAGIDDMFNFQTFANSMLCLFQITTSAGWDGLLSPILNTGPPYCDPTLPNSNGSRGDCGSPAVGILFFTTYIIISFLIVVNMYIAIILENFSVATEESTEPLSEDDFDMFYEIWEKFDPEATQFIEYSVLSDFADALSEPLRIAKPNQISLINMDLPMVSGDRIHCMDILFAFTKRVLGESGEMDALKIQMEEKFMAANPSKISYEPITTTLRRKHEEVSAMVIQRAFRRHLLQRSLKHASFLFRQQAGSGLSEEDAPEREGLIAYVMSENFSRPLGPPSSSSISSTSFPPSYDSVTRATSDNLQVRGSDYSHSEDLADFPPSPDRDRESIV
# Chain of NaV1.7 (Q15858 other isoform, or with tags, fused parts or gaps): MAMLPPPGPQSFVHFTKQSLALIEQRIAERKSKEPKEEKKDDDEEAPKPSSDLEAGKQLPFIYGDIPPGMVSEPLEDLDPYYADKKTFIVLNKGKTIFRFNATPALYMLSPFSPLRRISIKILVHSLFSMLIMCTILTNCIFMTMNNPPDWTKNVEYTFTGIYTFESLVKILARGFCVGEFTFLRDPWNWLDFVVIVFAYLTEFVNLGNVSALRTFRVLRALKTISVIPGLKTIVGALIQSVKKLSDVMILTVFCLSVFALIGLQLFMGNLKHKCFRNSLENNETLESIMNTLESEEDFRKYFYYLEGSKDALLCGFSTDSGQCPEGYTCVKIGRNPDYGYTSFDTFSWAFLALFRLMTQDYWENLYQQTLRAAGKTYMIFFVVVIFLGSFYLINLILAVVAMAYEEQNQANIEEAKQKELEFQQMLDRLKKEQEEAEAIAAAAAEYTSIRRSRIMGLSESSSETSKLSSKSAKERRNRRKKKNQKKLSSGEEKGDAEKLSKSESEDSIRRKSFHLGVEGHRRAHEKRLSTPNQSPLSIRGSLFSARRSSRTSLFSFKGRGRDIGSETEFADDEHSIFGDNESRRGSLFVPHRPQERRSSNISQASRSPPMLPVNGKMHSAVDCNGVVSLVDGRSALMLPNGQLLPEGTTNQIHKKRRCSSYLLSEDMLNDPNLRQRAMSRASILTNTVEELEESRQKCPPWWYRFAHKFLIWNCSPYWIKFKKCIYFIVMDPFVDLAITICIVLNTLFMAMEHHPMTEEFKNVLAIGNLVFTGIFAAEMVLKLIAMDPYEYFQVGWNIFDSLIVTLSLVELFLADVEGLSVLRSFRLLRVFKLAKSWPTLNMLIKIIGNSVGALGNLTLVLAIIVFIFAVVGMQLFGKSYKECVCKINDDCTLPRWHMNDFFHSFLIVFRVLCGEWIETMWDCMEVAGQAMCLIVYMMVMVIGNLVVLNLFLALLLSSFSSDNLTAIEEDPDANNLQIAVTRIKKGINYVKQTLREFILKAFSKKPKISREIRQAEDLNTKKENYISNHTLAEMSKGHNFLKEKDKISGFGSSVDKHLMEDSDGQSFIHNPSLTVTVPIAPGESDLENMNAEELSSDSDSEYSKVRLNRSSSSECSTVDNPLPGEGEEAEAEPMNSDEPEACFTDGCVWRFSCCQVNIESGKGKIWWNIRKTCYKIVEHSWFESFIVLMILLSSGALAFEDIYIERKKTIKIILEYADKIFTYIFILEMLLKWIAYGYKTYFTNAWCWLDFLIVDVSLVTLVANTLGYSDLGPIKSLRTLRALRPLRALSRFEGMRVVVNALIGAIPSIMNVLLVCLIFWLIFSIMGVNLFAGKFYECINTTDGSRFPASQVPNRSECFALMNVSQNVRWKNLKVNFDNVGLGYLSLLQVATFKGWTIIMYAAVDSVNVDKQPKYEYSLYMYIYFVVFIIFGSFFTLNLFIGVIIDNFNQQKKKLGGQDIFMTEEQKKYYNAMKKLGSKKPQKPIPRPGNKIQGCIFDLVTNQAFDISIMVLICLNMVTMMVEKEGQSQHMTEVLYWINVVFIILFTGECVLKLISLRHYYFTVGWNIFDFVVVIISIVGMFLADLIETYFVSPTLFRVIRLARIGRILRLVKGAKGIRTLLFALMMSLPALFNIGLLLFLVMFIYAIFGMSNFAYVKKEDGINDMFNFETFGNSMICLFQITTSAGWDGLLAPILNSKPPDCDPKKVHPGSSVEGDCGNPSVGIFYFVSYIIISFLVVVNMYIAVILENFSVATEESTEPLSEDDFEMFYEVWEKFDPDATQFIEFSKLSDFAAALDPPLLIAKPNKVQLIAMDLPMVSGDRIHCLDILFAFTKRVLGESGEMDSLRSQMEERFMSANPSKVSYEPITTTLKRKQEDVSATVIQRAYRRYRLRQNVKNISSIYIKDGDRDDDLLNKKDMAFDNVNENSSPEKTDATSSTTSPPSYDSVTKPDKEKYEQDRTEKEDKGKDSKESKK
# Chain of NaV1.7 (Q07699 19-218 partner): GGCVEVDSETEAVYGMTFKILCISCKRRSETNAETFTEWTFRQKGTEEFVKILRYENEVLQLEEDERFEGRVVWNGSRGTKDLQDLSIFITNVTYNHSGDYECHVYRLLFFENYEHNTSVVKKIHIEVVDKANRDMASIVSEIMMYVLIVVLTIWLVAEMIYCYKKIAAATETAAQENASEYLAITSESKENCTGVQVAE
SMILES,IC50 (NaV1.7) [µM],IC50 (NaV1.5) [µM]
"CN(c1ncns1)S(=O)(=O)c1cc(F)c(OC[C@@H]2CNCC[C@H]2c2ccc(Cl)cc2)cc1F (relative stereo) [Example 79, 4-((trans-4-(4-chlorophenyl)piperidin-3-yl)methoxy)-2,5-difluoro-N-methyl-N-(1,2,4-thiadiazol-5-yl)benzenesulfonamide]",7.88,> 10
"CC(C)CNS(=O)(=O)c1cc(F)c(OC[C@@H]2CNCC[C@H]2c2ccc(Cl)cc2)cc1F (relative stereo) [Example 96, 4-((trans-4-(4-chlorophenyl)piperidin-3-yl)methoxy)-2,5-difluoro-N-isobutylbenzenesulfonamide]",4.9,7.56
"COc1ccc([C@@H]2CCNC[C@H]2COc2cc(F)c(S(=O)(=O)Nc3ncns3)cc2F)cc1 (relative stereo) [Example 94, 2,5-difluoro-4-((trans-4-(4-methoxyphenyl)piperidin-3-yl)methoxy)-N-(1,2,4-thiadiazol-5-yl)benzenesulfonamide]",0.132,> 10
"O=S(=O)(c1cc(F)c(OC[C@@H]2CNCC[C@H]2c2ccc(F)cc2)cc1F)n1cccn1 (relative stereo) [Example 98, trans-3-((4-((1H-pyrazol-1-yl)sulfonyl)-2,5-difluorophenoxy)methyl)-4-(4-fluorophenyl)piperidine]",7.22,7.53
"Cc1ccc([C@@H]2CCNC[C@H]2COc2cc(F)c(S(=O)(=O)Nc3ncns3)cc2F)cc1 (relative stereo) [Example 100, 2,5-difluoro-N-(1,2,4-thiadiazol-5-yl)-4-((trans-4-(p-tolyl)piperidin-3-yl)methoxy)benzenesulfonamide]",0.393,> 10

# Continued, in another order:
IC50 (NaV1.7) [µM],SMILES,IC50 (NaV1.5) [µM]
2.04,"O=S(=O)(Nc1ncns1)c1cc(F)c(OC[C@@H]2C[C@@H](O)CCC2c2ccc(Cl)cc2)cc1F (stereo partly drawn) [Example 111, 4-(((trans-5R)-2-(4-chlorophenyl)-5-hydroxycyclohexyl)methoxy)-2,5-difluoro-N-(1,2,4-thiadiazol-5-yl)benzenesulfonamide]",> 10
0.071,"O=S(=O)(Nc1ncns1)c1cc(F)c(OC[C@@H]2CNCC[C@H]2c2ccc(F)c(C(F)F)c2)cc1F (relative stereo) [Example 108, 4-((trans-4-(3-(difluoromethyl)-4-fluorophenyl)piperidin-3-yl)methoxy)-2,5-difluoro-N-(1,2,4-thiadiazol-5-yl)benzenesulfonamide]",> 10
0.244,"O=C1CC[C@@H](c2ccc(Cl)cc2)[C@H](COc2cc(F)c(S(=O)(=O)Nc3ncns3)cc2F)C1 (relative stereo) [Example 109, 4-((trans-2-(4-chlorophenyl)-5-oxocyclohexyl)methoxy)-2,5-difluoro-N-(1,2,4-thiadiazol-5-yl)benzenesulfonamide]",> 10
0.038,"O=S(=O)(Nc1ncns1)c1cc(F)c(OC[C@@H]2CNCC[C@H]2c2ccc(F)c(C(F)(F)F)c2)cc1F (relative stereo) [Example 107, 2,5-difluoro-4-((trans-4-(4-fluoro-3-(trifluoromethyl)phenyl)piperidin-3-yl)methoxy)-N-(1,2,4-thiadiazol-5-yl)benzenesulfonamide]",> 10
0.326,"O=S(=O)(Nc1ncns1)c1cc(F)c(OCC2CNCCN2c2ccc(Cl)cc2)cc1F (stereo not drawn) [Example 112, 4-((1-(4-chlorophenyl)piperazin-2-yl)methoxy)-2,5-difluoro-N-(1,2,4-thiadiazol-5-yl)benzenesulfonamide]",> 10
0.426,"O=S(=O)(Nc1ncns1)c1cc(F)c(OC[C@@H]2C[C@H](O)CCC2c2ccc(Cl)cc2)cc1F (stereo partly drawn) [Example 110, 4-(((trans-5S)-2-(4-chlorophenyl)-5-hydroxycyclohexyl)methoxy)-2,5-difluoro-N-(1,2,4-thiadiazol-5-yl)benzenesulfonamide]",> 10
0.181,"O=S(=O)(Nc1ncns1)c1cc(F)c(OC[C@@H]2CNCC[C@H]2c2cc(F)c(F)cc2F)cc1F (relative stereo) [Example 106, 2,5-difluoro-N-(1,2,4-thiadiazol-5-yl)-4-((trans-4-(2,4,5-trifluorophenyl)piperidin-3-yl)methoxy)benzenesulfonamide]",> 10
